Measured values reported in PubChem BioAssay AID540252 (Sanford-Burnham Center for Chemical Genomics, 2011).
Calls of active or inactive are those of the source. The rule behind the calls is not given here.

target: glucose-6-phosphate dehydrogenase-6-phosphogluconolactonase (Plasmodium falciparum 3D7); experiment: inhibition of P. falciparum G6PD activity – biochemical, end-point NADPH detection, orthogonal assay, dose response (AID 540252); conditions: purified PfG6PD enzyme, NADPH direct detection

Row | SMILES | IC50
1 | Nc1c(O)cccc1C(=O)O | > 80 µM (inactive)
2 | O=C(COc1ccccc1F)OCC(=O)c1ccc([N+](=O)[O-])cc1 | 44.6 µM
3 | Clc1ccc2nc(-c3ccc4c(c3)OCO4)cn2c1 | > 80 µM (inactive)
4 | Cc1cc(C)c(NC(=S)NCC2CCN(C(C)c3ccccc3)C2)c(C)c1 (stereo not given) | 64.1 µM
5 | Cc1ccc(-c2nc(N3CCOCC3)s[n+]2-c2ccccc2)cc1 | > 80 µM (inactive)
6 | O=C(CCSCCC(=O)NN=Cc1ccccc1)NN=Cc1ccccc1 | > 80 µM (inactive)
7 | Cn1sc2ccccc2c1=O | 52.3 µM
8 | O=C(Nc1nnc(S(=O)(=O)N2CCCCCC2)s1)c1cccc(Br)c1 | > 80 µM (inactive)
9 | Cc1cc(SCC(=O)N/N=C/c2ccco2)nc2ccccc12 | > 80 µM (inactive)
10 | COc1cc(NCCCn2cnc(C(=O)Nc3ccc(C)c(C)c3)n2)cc(OC)c1OC | > 80 µM (inactive)
11 | CCNc1cc2c(cc1O)CCC1C2CCC2(C)C(O)CCC12 (stereo not given) | > 80 µM (inactive)
12 | Cc1ccccc1-n1c(-c2ccc3ccccc3n2)n[nH]c1=S | > 80 µM (inactive)
13 | CN(C)C=Nc1ccc2nc3c(cc2c1)[nH]c1ccccc13 | > 80 µM (inactive)
14 | C=CCOc1c(Cl)cc(CNc2ccc(N(C)C)cc2)cc1OC | > 80 µM (inactive)
15 | Cc1cc(C)c(S(=O)(=O)/N=C2/C=C(SCC(=O)O)C(=O)c3ccccc32)cc1C | > 80 µM (inactive)
16 | CC1=CC(C)(C)Nc2ccc(OC(=O)CN3C(=O)CCC3=O)cc21 | > 80 µM (inactive)
17 | Cc1cccc(C(=O)Nc2nnc(S(=O)(=O)N3CCCCCC3)s2)c1 | > 80 µM (inactive)
18 | O=C(CCC(=O)Nc1ccccc1Cl)N/N=C/c1ccccc1 | > 80 µM (inactive)
19 | [O-]/[N+](=C/c1cccnc1)c1ccc(Br)cc1 | > 80 µM (inactive)
20 | CCc1ccc(S(=O)(=O)Nc2cc(SCC(=O)O)c(O)c3ccccc23)cc1 | > 80 µM (inactive)
21 | Cc1ccc2nc3sc(C(=O)N4CCOCC4)c(N)c3cc2c1 | > 80 µM (inactive)
22 | Cc1cc(C)nc(/N=C(\N)Nc2ccccc2-c2ccccc2)n1 | > 80 µM (inactive)
23 | O=C(Sc1n[nH]c(=O)[nH]c1=O)c1ccccc1 | 23.3 µM
24 | CCN(CC)CCNC(=O)CCCCn1c(=S)[nH]c2c([nH]c3ccc(OC)cc32)c1=O | > 80 µM (inactive)
25 | O=C(CNC(=O)c1ccco1)OCC(=O)c1ccc([N+](=O)[O-])cc1 | 48.4 µM
26 | COc1cc(NCc2ccccc2)c2ncn(C(C)C)c2c1 | > 80 µM (inactive)
27 | CCn1c(SCc2nc3scc(-c4ccccc4)c3c(=O)[nH]2)nnc1-c1cccs1 | > 80 µM (inactive)

Row | SMILES | IC50
28 | CC(=O)Nc1ccc2sn(-c3ccccc3)c(=O)c2c1 | 18.2 µM
29 | Cc1cc(C)c2c(=O)n(CC(=O)NC3CCCC3)sc2n1 | > 80 µM (inactive)
30 | C=CCOc1c(Cl)cc(CNc2ccc3[nH]c(=O)[nH]c3c2)cc1OC | > 80 µM (inactive)
31 | COC1=C(Br)C(=O)c2nc(C)ccc2C1=O | > 80 µM (inactive)
32 | Cc1c(C(=O)N(Cc2ccccc2Cl)C2CCS(=O)(=O)C2)oc2ccccc12 (stereo not given) | > 80 µM (inactive)
33 | COc1cccc(C2(c3cccc(OC)c3)CC2C(=O)Nc2ccc(F)cc2)c1 (stereo not given) | > 80 µM (inactive)
34 | CCOc1ccccc1CNc1ccc(O)cc1 | > 80 µM (inactive)
35 | O=c1c2ccccc2sn1-c1ccc(Cl)cc1 | 17.2 µM
36 | N#CC1=C(N)Oc2c(O)cc3ccccc3c2C1c1ccsc1 (stereo not given) | > 80 µM (inactive)
37 | COc1ccc(C(=O)Nc2cc(Cl)ccc2C(=O)O)cc1 | > 80 µM (inactive)
38 | CNS(=O)(=O)c1ccc(-c2ccc(C=C3C(=O)NC(=O)NC3=O)o2)cc1 | > 80 µM (inactive)
39 | CN=c1scc(C)n1/N=C/c1ccc(O)c(O)c1O | > 80 µM (inactive)
40 | COc1cc(CNc2ccc(N3CCCC3)cc2)cc(Cl)c1OC | > 80 µM (inactive)
41 | Cc1nnc(N/N=C/c2ccc(-c3ccccc3F)o2)n1N | > 80 µM (inactive)
42 | CCCCOc1ccc(Cc2n[nH]c(=S)n2N)cc1 | > 80 µM (inactive)
43 | COc1cc(CN2CCCC(C(=O)c3ccc4c5c(cccc35)CC4)C2)cc(OC)c1O (stereo not given) | > 80 µM (inactive)
44 | Cc1nc2c(o1)C(=O)c1ccccc1C2=Nc1ccccc1 | > 80 µM (inactive)
45 | c1cc(CNc2ccc3c(c2)OCO3)ccn1 | > 80 µM (inactive)
46 | C#CCCc1cscc1/C=[N+](\[O-])c1ccc(C(=O)OCC)cc1 | > 80 µM (inactive)
47 | COc1ccc(N2C(=O)/C(=C/c3cccs3)NC2=S)cc1 | > 80 µM (inactive)
48 | CCN1CCN(C(=S)c2ccc(O)cc2)CC1 | > 80 µM (inactive)
49 | Cc1ccc(NNS(=O)(=O)c2ccc(C)cc2)cc1 | > 80 µM (inactive)
50 | COc1cc(N(C)C)ccc1C=c1c2ccccc2n2c1cc(-c1ccccc1)[n+]2C | > 80 µM (inactive)
51 | Cc1cc(C)c2c(=O)n(CC(=O)Nc3ccc(Br)c(C)c3)sc2n1 | > 80 µM (inactive)
52 | O=C(O)C(Cc1ccccc1)N1C(=O)C=CC1=O (stereo not given) | 51 µM
53 | CC1N(C)c2cccc3cccc(c23)N1C | > 80 µM (inactive)
54 | COc1ccc(NC(=S)N(CCC(C)C)C2CCN(C(C)C)CC2)cc1Cl | > 80 µM (inactive)

Row | SMILES | IC50
55 | COc1cc(N=c2ssnc2Cl)c(OC)cc1Cl | 29.2 µM
56 | COc1cc(O)c(C(=O)O)c(-c2cc(O)c(O)cc2C)c1 | > 80 µM (inactive)
57 | O=C(CCC(=O)OCC(=O)c1ccc([N+](=O)[O-])cc1)Nc1ccccc1Cl | 53 µM
58 | CC(NC(=O)c1sc2cc([N+](=O)[O-])ccc2c1Cl)C(C)(C)C (stereo not given) | > 80 µM (inactive)
59 | Cc1ccc(/C=C/C(=O)Nc2ccc([N+](=O)[O-])c(NC(=O)/C=C/c3ccc(C)o3)c2)o1 | 33.6 µM
60 | COc1cc(NCc2ccccc2O)c2ncccc2c1 | > 80 µM (inactive)
61 | Cc1cccc(NC2=C(NC(=O)c3ccccc3)C(=O)c3ccccc3C2=O)c1 | > 80 µM (inactive)
62 | O=c1c2ccc(F)cc2sn1-c1ccccc1 | 14.5 µM
63 | CC(C)Sc1nnc(NC(=O)c2ccc3c(c2)OCO3)s1 | > 80 µM (inactive)
64 | Cc1ccc(/C=C2\C(=O)NC(=S)N(c3ccccc3F)C2=O)s1 | > 80 µM (inactive)
65 | Cc1ccc(/C=C/C(=O)NC2CCCCCCC2)o1 | > 80 µM (inactive)
66 | CC1CCc2[nH]c3ccc(C(=O)N(C)CC(=O)Nc4ccccc4C(F)(F)F)cc3c2C1 (stereo not given) | > 80 µM (inactive)
67 | Cc1cc(C)nc(SSc2nc(C)cc(C)n2)n1 | 57.6 µM
68 | Cn1cc(S(=O)(=O)CC(=O)N2CCc3ccccc32)c2ccccc21 | > 80 µM (inactive)
69 | CCOC(=O)Cc1cc(=O)n2[nH]c(C(C)(C)C)cc2n1 | > 80 µM (inactive)
70 | CCc1c(C(=O)Nc2ccccc2)c(C)[nH]c(=S)c1C#N | > 80 µM (inactive)
71 | Cc1cc(C)c2c(=N)c3ccccc3n(CCCCCCCCn3c4ccccc4c(=N)c4c(C)cc(C)nc43)c2n1 | > 80 µM (inactive)
72 | COc1cccc(C=Nc2cc(C(C)C)c(O)cc2C)c1O | > 80 µM (inactive)
73 | Clc1cccc(Cl)c1CNc1ccc(N2CCCC2)cc1 | > 80 µM (inactive)
74 | c1ccc(-c2cn3c(n2)CCc2ccc4cccnc4c2-3)cc1 | > 80 µM (inactive)
75 | c1ccc(-c2nc(N3CCOCC3)s[n+]2-c2ccccc2)cc1 | > 80 µM (inactive)
76 | C=CCSc1nnc(NC(=O)c2ccc(Cl)nc2)s1 | > 80 µM (inactive)
77 | Cc1nnc(Sc2cc(NCCO)c([N+](=O)[O-])c3nonc23)s1 | 53.1 µM
78 | O=C1C=CC2=C3c4cc(O)c(O)cc4CC3(O)COC2=C1O (stereo not given) | > 80 µM (inactive)
79 | O=C(CSc1nc2cc(Cl)ccc2s1)c1ccco1 | > 80 µM (inactive)
80 | N#Cc1ccc2sn(-c3ccccc3)c(=O)c2c1 | 15.2 µM
81 | CCOc1ccc(CNc2ccc(N3CCCC3)cc2)cc1 | > 80 µM (inactive)

Row | SMILES | IC50
82 | CN(C)c1ccc(C=c2c3cc(O)ccc3n3c2cc(-c2ccccc2)[n+]3C)cc1 | > 80 µM (inactive)
83 | CCN(CC)C(=O)c1c(C)[nH]c(=S)c(C#N)c1-c1ccco1 | > 80 µM (inactive)
84 | COc1cc(/C=N/Nc2nncn2N)ccc1OCc1c(C)no[n+]1[O-] | > 80 µM (inactive)
85 | Oc1ccc(-c2cn3c(n2)SCC3)cc1O | > 80 µM (inactive)
86 | Cc1ccc(/C=C/C(=O)N2CCN(S(=O)(=O)c3ccc(C)c(C)c3)CC2)o1 | > 80 µM (inactive)
87 | Cn1c(=O)[nH]c(=O)c2c1[nH]c(=S)n2CCCc1ccccc1 | 66.1 µM
88 | CC(C)(C)c1ccc(C(=O)Nc2sc3c(c2C(=O)O)CCC3)cc1 | > 80 µM (inactive)
89 | CN1CCc2cc(O)cc3c2[C@H]1Cc1ccc(O)c(O)c1-3 | > 80 µM (inactive)
90 | N#Cc1c(C#N)c(SSc2c(C#N)c(C#N)c(N)n2-c2ccccc2)n(-c2ccccc2)c1N | > 80 µM (inactive)
91 | O=C1CCN(c2ccccc2)N1 | > 80 µM (inactive)
92 | S=c1ncc2[nH]c(=S)[nH]c2[nH]1 | 60.5 µM
93 | O=C(CN1C(=O)C2C3C=CC(C3)C2C1=O)OCC(=O)c1ccc([N+](=O)[O-])cc1 (stereo not given) | 56.7 µM
94 | Cn1c(=O)c2c([nH]c(=S)n2CCCc2ccccc2)n(C)c1=O | > 80 µM (inactive)
95 | COc1c(O)c(O)c2oc(-c3ccccc3)cc(=O)c2c1OC | > 80 µM (inactive)
96 | COc1cccc(CNc2ccc3[nH]c(=O)[nH]c3c2)c1OCc1ccc(F)cc1 | > 80 µM (inactive)
97 | CCC(=O)OCCNc1cc(Sc2nc3ccccc3s2)c2nonc2c1[N+](=O)[O-] | > 80 µM (inactive)
98 | C[n+]1c(-c2ccccc2)cc2c(=Cc3ccc([N+](=O)[O-])cc3)c3ccccc3n21 | > 80 µM (inactive)
99 | CC(C)c1cc2c(c(O)c1O)[C@@]13CCCC(C)(C)C1CC2OC3=O (stereo not given in full) | > 80 µM (inactive)
100 | COc1cccc(-c2c(C(=O)N/N=C/c3ccc(C)s3)nnn2-c2nonc2N)c1 | > 80 µM (inactive)
101 | C=CCSc1nc2sc3c(c2c(=O)n1CC)CCc1ccccc1-3 | > 80 µM (inactive)
102 | COc1cc(N)c2ncccc2c1OC | > 80 µM (inactive)
103 | COc1cc(-c2nnc3n2N=C(c2ccccc2)CS3)cc(OC)c1OC | > 80 µM (inactive)
104 | CCN(CC)c1nc(N)nc(NS(=O)(=O)c2ccc(Cl)cc2)n1 | > 80 µM (inactive)
105 | O=C(CCl)NCCN1C(=O)S/C(=C\c2cccnc2)C1=O | > 80 µM (inactive)
